Experimental data: patent US8541473B2, “3-aminoxalyl-aminobenzamide derivatives and insecticidal and miticidal agents containing same as active ingredient” (Agro-Kanesho Co., Ltd., priority 2009, dated 2013)

Tests used:
Type in all cases: in vivo
[1] = test system: larvae of Plutella xylostella; test: Insecticidal effect on larvae of Plutella xylostella (spray on potted Chinese cabbage); settings: for rate of killed insects (larvae): 5 days after release of larvae, agonized larvae regarded as killed; for insecticidal effect: comparative compounds, result in words, stated against the 500 ppm result
Experimental: The seeds of Chinese cabbage were sowed in a pot and then the seedlings were raised over 3 weeks. A water-diluted emulsion prepared according to the procedures used in the foregoing drug-preparation Example 1 was sufficiently sprayed on the leaves of these potted plants using an air brush (one concentration, once repeated). After the drug-containing liquid was air-dried, the plants were kept in a thermostatic chamber maintained at 25° C. and the larvae of the insect were set free. After 5 days from the release of the larvae, the latter was examined for whether they were died or not and whether they were in agony or not and the rates of killed insects (larvae) (%) were determined, while the agonized larvae were regarded as killed ones. In this respect, the comparative compounds used in this test were compounds A and B disclosed in JP-A-2006-306771 (Patent Document 25).

[2] = test system: female adults of Tetranychus urticae; test: Miticidal effect on adults of Tetranychus urticae (spray on bean leaf-disks); settings: for rate of killed adults: 4 days after drug-spray, agonized adults regarded as killed; for insecticidal effect: comparative compounds, result in words, stated against the 50 ppm result
Experimental: A polyethylene cup having a volume of 430 ml and filled with water was covered with a cap in which a hole (diameter: about 5 mm) had been formed at the center thereof. A cut having a width of about 5 mm was made on a circular filter paper having a diameter of 6.5 cm, the strip-like portion of the filter paper, which hung down, was inserted into the cup through the hole thereof in such a manner that the portion was immersed in the water contained in the cup, and absorbent cotton was put on the filter paper so that the water in the cup was always supplied to the absorbent cotton. Then, two leaf-disks (2 cm×5 cm) prepared from the primary leaves of bean were put on the absorbent cotton and then these two leaf-disks were inoculated with 10 female adults of Tetranychus urticae. This cup was placed in a cylinder of acrylic resin having a height of 50 cm and an inner diameter of 10 cm and a water-diluted emulsion prepared according to the same procedures used in the foregoing drug-preparation Example 1 was then sprayed on each cup in an amount of 1.35 ml per cup using an air brush (one concentration, once repeated). After the agricultural chemical was sprayed, the cups were kept in a thermostatic chamber maintained at a temperature of 25° C. After 4 days from the drug-spray, the adults were examined, under the observation by a prism binocular, for whether they were died or not and whether they were in agony or not and the rates of killed mites (adults) (%) were determined, while the agonized adults were regarded as killed ones. In this respect, the comparative compounds used in this test were compounds A and B disclosed in JP-A-2006-306771.

[3] = test system: nymphs of Myzus persicae; test: Effect of killing larvae of Myzus persicae (leaf piece immersion); settings: for rate of killed nymphs: 7th day after treatment, agonized nymphs regarded as killed; for insecticidal effect: comparative compounds, result in words, stated against the 50 ppm result
Experimental: Three each of adults of Myzus persicae were inoculated on a cut piece (having a size of 3 cm×4 cm) of the leaf of Chinese cabbage and they were made breed for 48 hours within a thermostatic chamber maintained at a temperature of 25° C. After the removal of the adults, each cut piece of the leaf was immersed in a water-diluted emulsion prepared according to the same procedures used in the foregoing Drug-Preparation Example 1 for 5 seconds, and then kept in a thermostatic chamber maintained at 25° C. On 7th day after the foregoing treatment, the nymphs were inspected for whether they were died or not and whether they were in agony or not and the rates (%) of killed nymphs of the plant lice were determined, while the agonized nymphs were regarded as killed ones. In this respect, the comparative compounds used in this test were compounds A and B disclosed in JP-A-2006-306771.

CCc1cc(C(F)(C(F)(F)F)C(F)(F)F)cc(CC)c1NC(=O)c1cccc(NC(=O)C(=O)N(C)CC)c1 [Compound 1-57]
rate of killed insects (larvae) ([1]; 5 ppm): 100%

CCc1cc(C(F)(C(F)(F)F)C(F)(F)F)cc(C)c1NC(=O)c1cccc(NC(=O)C(=O)N(C)CCCl)c1 [Compound 1-78]
rate of killed adults ([2]; 50 ppm): 100%

Cc1cc(C(F)(C(F)(F)F)C(F)(F)F)cc(C)c1NC(=O)c1cccc(NC(=O)C(=O)NCCCCl)c1 [Compound 1-83]
rate of killed insects (larvae) ([1]; 50 ppm): 100%

CCc1cc(C(F)(C(F)(F)F)C(F)(F)F)cc(C)c1NC(=O)c1cccc(NC(=O)C(=O)N(CC)CC(F)(F)F)c1 [Compound 1-97]
rate of killed nymphs ([3]; 12.5 ppm): 100%

Cc1cc(C(F)(C(F)(F)F)C(F)(F)F)ccc1NC(=O)c1cccc(NC(=O)C(=O)N(C)C)c1 [Compound 1-53]
rate of killed insects (larvae) ([1]; 50 ppm): 100%

CCc1cc(C(F)(C(F)(F)F)C(F)(F)F)cc(C)c1NC(=O)c1cccc(NC(=O)C(=O)N(C)C(C)(C)CC)c1 [Compound 1-46]
rate of killed adults ([2]; 12.5 ppm): 100%

CCc1cc(C(F)(C(F)(F)F)C(F)(F)F)cc(C)c1NC(=O)c1cccc(NC(=O)C(=O)N(C)CC(F)F)c1 [Compound 1-100]
rate of killed adults ([2]; 12.5 ppm): 100%

CCc1cc(C(F)(C(F)(F)F)C(F)(F)F)cc(C)c1NC(=O)c1cccc(NC(=O)C(=O)N(C)CCF)c1 [Compound 1-103, 3-(N-(2-fluoroethyl)-N-methylaminooxalylamino)-N-(2-ethyl-4-heptafluoroisopropyl-6-methyl)phenylbenzamide]
rate of killed adults ([2]; 12.5 ppm): 100%

Cc1cc(C(F)(C(F)(F)F)C(F)(F)F)cc(C)c1NC(=O)c1cccc(NC(=O)C(N)=O)c1 [Compound 1-1]
rate of killed insects (larvae) ([1]; 500 ppm): 100%

Cc1cc(C(F)(C(F)(F)F)C(F)(F)F)cc(I)c1NC(=O)c1cccc(NC(=O)C(=O)N(C)C(C)(C)C)c1 [Compound 1-65]
rate of killed nymphs ([3]; 12.5 ppm): 100%

Cc1cc(C(F)(C(F)(F)F)C(F)(F)F)cc(C)c1NC(=O)c1cccc(NC(=O)C(=O)N2CCCC2)c1 [Compound 1-33, 3-(pyrrolidin-1-yl-oxalylamino)-N-(2,6-dimethyl-4-heptafluoroisopropyl)phenylbenzamide]
rate of killed nymphs ([3]; 50 ppm): 100%

CCc1cc(C(F)(C(F)(F)F)C(F)(F)F)cc(C)c1NC(=O)c1cccc(NC(=O)C(=O)N(C)CC(F)(F)F)c1 [Compound 1-87]
rate of killed nymphs ([3]; 5 ppm): 100%
rate of killed nymphs ([3]; 50 ppm): 100%

CCc1cc(C(F)(C(F)(F)F)C(F)(F)F)cc(C)c1NC(=O)c1cccc(NC(=O)C(=O)N(C)C(C)(C)C)c1 [Compound 1-44]
rate of killed nymphs ([3]; 50 ppm): 100%
rate of killed insects (larvae) ([1]; 5 ppm): 100%
rate of killed adults ([2]; 5 ppm): 100%

CCc1cc(C(F)(C(F)(F)F)C(F)(F)F)cc(C)c1NC(=O)c1cccc(NC(=O)C(=O)N(C)C2CCCC2)c1 [Compound 1-47]
rate of killed nymphs ([3]; 50 ppm): 100%
rate of killed insects (larvae) ([1]; 50 ppm): 100%

Cc1cc(C(F)(C(F)(F)F)C(F)(F)F)cc(C)c1NC(=O)c1cccc(NC(=O)C(=O)N(C)C)c1 [Compound 1-21]
rate of killed nymphs ([3]; 50 ppm): 100%

CCc1cc(C(F)(C(F)(F)F)C(F)(F)F)cc(C)c1NC(=O)c1cccc(NC(=O)C(=O)N(C)C2CCC2)c1 [Compound 1-45]
rate of killed insects (larvae) ([1]; 12.5 ppm): 100%

CCc1cc(C(F)(C(F)(F)F)C(F)(F)F)cc(Br)c1NC(=O)c1cccc(NC(=O)C(=O)N(C)CC(F)F)c1 [Compound 1-109]
rate of killed nymphs ([3]; 12.5 ppm): 100%
rate of killed nymphs ([3]; 50 ppm): 100%
rate of killed insects (larvae) ([1]; 12.5 ppm): 100%
rate of killed insects (larvae) ([1]; 50 ppm): 100%
rate of killed insects (larvae) ([1]; 500 ppm): 100%
rate of killed adults ([2]; 12.5 ppm): 100%
rate of killed adults ([2]; 50 ppm): 100%

Cc1cc(C(F)(C(F)(F)F)C(F)(F)F)cc(C)c1NC(=O)c1cccc(NC(=O)C(=O)N(C)C(C)(C)C)c1 [Compound 1-28]
rate of killed nymphs ([3]; 50 ppm): 100%
rate of killed insects (larvae) ([1]; 5 ppm): 100%
rate of killed adults ([2]; 5 ppm): 100%

Cc1cc(C(F)(C(F)(F)F)C(F)(F)F)cc(C)c1NC(=O)c1cccc(NC(=O)C(=O)N(C)C(C)C)c1 [Compound 1-24]
rate of killed nymphs ([3]; 50 ppm): 100%

COc1cc(C(F)(C(F)(F)F)C(F)(F)F)cc(Cl)c1NC(=O)c1cccc(NC(=O)C(=O)N(C)CC(F)(F)F)c1 [Compound 1-112]
rate of killed insects (larvae) ([1]; 12.5 ppm): 100%
rate of killed insects (larvae) ([1]; 50 ppm): 100%
rate of killed adults ([2]; 50 ppm): 100%

Cc1cc(C(F)(C(F)(F)F)C(F)(F)F)cc(C)c1NC(=O)c1cccc(NC(=O)C(=O)NCCCl)c1 [Compound 1-75]
rate of killed insects (larvae) ([1]; 5 ppm): 100%

CCc1cc(C(F)(C(F)(F)F)C(F)(F)F)cc(C)c1NC(=O)c1cccc(NC(=O)C(=O)N(CC)C(C)(C)C)c1 [Compound 1-50]
rate of killed adults ([2]; 12.5 ppm): 100%

Cc1cc(C(F)(C(F)(F)F)C(F)(F)Br)cc(C)c1NC(=O)c1cccc(NC(=O)C(=O)N(C)CC(F)(F)F)c1 (centres unmarked) [Compound 2-15]
rate of killed nymphs ([3]; 12.5 ppm): 100%

CCN(CC)C(=O)C(=O)Nc1cccc(C(=O)Nc2c(C)cc(C(F)(C(F)(F)F)C(F)(F)F)cc2C)c1 [Compound 1-30]
rate of killed insects (larvae) ([1]; 50 ppm): 100%

CCN(C)C(=O)C(=O)Nc1cccc(C(=O)Nc2c(Br)cc(C(F)(C(F)(F)F)C(F)(F)F)cc2C(C)C)c1 [Compound 1-74]
rate of killed adults ([2]; 50 ppm): 100%

CCc1cc(C(F)(C(F)(F)F)C(F)(F)F)cc(C)c1NC(=O)c1cccc(NC(=O)C(=O)N(C)C(C)C)c1 [Compound 1-40]
rate of killed adults ([2]; 5 ppm): 100%

Cc1cc(C(F)(C(F)(F)F)C(F)(F)F)cc(C)c1NC(=O)c1cccc(NC(=O)C(=O)NC2CCCC2)c1 [Compound 1-19]
rate of killed insects (larvae) ([1]; 50 ppm): 100%

CCN(C)C(=O)C(=O)Nc1cccc(C(=O)Nc2c(C)cc(C(F)(C(F)(F)F)C(F)(F)F)cc2Br)c1 [Compound 1-62]
rate of killed insects (larvae) ([1]; 12.5 ppm): 100%
rate of killed insects (larvae) ([1]; 50 ppm): 100%
rate of killed insects (larvae) ([1]; 500 ppm): 100%

CC(C)c1cc(C(F)(C(F)(F)F)C(F)(F)F)cc(Br)c1NC(=O)c1cccc(NC(=O)C(=O)N(C)CC(F)(F)F)c1 [Compound 1-96]
rate of killed insects (larvae) ([1]; 12.5 ppm): 100%
rate of killed adults ([2]; 12.5 ppm): 100%

CCc1cc(C(F)(F)C(F)(F)C(F)(F)F)cc(C)c1NC(=O)c1cccc(NC(=O)C(=O)N(C)CC(F)(F)F)c1 [Compound 2-3]
rate of killed insects (larvae) ([1]; 12.5 ppm): 100%

CCc1cc(C(F)(F)C(F)(F)C(F)(F)F)cc(C)c1NC(=O)c1cccc(NC(=O)C(=O)N(C)C(C)(C)C)c1 [Compound 2-2]
rate of killed nymphs ([3]; 12.5 ppm): 100%

CCN(C)C(=O)C(=O)Nc1cccc(C(=O)Nc2c(Cl)cc(C(F)(C(F)(F)F)C(F)(F)F)cc2OC(F)(F)F)c1 [Compound 1-115]
rate of killed nymphs ([3]; 12.5 ppm): 100%

Cc1cc(C(F)(C(F)(F)F)C(F)(F)F)cc(C)c1NC(=O)c1cccc(NC(=O)C(=O)NCCBr)c1 [Compound 1-80]
rate of killed insects (larvae) ([1]; 500 ppm): 100%

COC(=O)C(=O)Nc1cccc(C(=O)Nc2c(C)cc(C(F)(C(F)(F)F)C(F)(F)F)cc2C)c1 [compound A, reference compound]
insecticidal effect [3]: did not show any insecticidal effect
insecticidal effect [1]: did not show any insecticidal effect
insecticidal effect [2]: did not show any insecticidal effect

CCOC(=O)C(=O)Nc1cccc(C(=O)Nc2c(C)cc(C(F)(C(F)(F)F)C(F)(F)F)cc2C)c1 [compound B, reference compound]
insecticidal effect [3]: did not show any insecticidal effect
insecticidal effect [1]: did not show any insecticidal effect
insecticidal effect [2]: did not show any insecticidal effect
